This note sets out measurements from PubChem BioAssay AID179 (DTP/NCI, 2004).

SMILES strings stand for the structures. Active and inactive are the calls of the source.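 How the source made its calls: active means compounds giving half or more protection of infected cells from virus-caused growth loss, again on retest; inactive means the rest.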 Where a SMILES comes first, the peptide text is derived from it.

The assay deals with CEM cells HIV-1 protection, formazan growth assay. As to the kind of experiment: NCI AIDS Antiviral Assay. To be noted: for IC50: measured here: growth of uninfected CEM cells. An outline of the steps: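 Protection of CEM cells against HIV-1 was scored from cell growth (soluble formazan) across five concentrations, with parallel uninfected cells. Lack of protection may reflect toxicity.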

As usually defined, the EC50 is the concentration giving half of the maximal effect. Usually IC50 stands for the concentration that gives 50% inhibition. A low value points to inhibition by little substance. For `COC(=O)[C@]1(C)CCC[C@]2(C)C3=CC(=O)[C@@]4(C(C)C)O[C@H]4[C@]3(O)CC[C@@H]12`, the EC50 was above 72.4 µM and the IC50 is above 72.4 µM.

On to `COC(=O)c1cc2/c(=N/O)c3ccccc3sc2o1`, for which the EC50 was above 200 µM and the IC50 was above 200 µM.

As to `CCOC(=O)C(C)(C)Oc1ccc2c(-c3ccc(Cl)cc3)cc(=O)oc2c1`, the EC50 is above 13.5 µM and the IC50 was above 13.5 µM.

Regarding `O=C1C2Nc3ccccc3SC2C(=O)N1c1ccccc1C(F)(F)F` (stereo not drawn), the EC50 is above 20 µM and the IC50 is 15.1 µM.

Consider `Cc1ccc(-n2c(N)c(C#N)c3[nH]nc(N)c3c2=O)cc1`, for which the EC50 is above 200 µM and the IC50 was above 200 µM.

For `CCCCCCCCC1=C(OC)C(=O)c2c(C)cc(Cl)nc2C1=O`, the outcome was inactive.

Turning to `CC1=Nc2nc3ccccc3n2C(C)(C)C1`, the EC50 was above 174 µM and the half-inhibitory concentration (IC50) was determined as 112 µM.

Take `COC(=O)C(Cc1c(-c2[nH]c3ccccc3c2CC(NC(C)=O)C(=O)OC)[nH]c2ccccc12)NC(C)=O` (stereo not drawn): the EC50 was above 200 µM and the IC50 is above 200 µM.

For the compound `O=C(CSSCC(=O)Nc1ccc(Br)cc1)Nc1ccc(Br)cc1`, the outcome was inactive.

Turning to `O=S(=O)(O)c1cc(N=Nc2cc(S(=O)(=O)O)c3cccnc3c2O)ccc1CCc1ccc(N=Nc2cc(S(=O)(=O)O)c3cccnc3c2O)cc1S(=O)(=O)O`, the concentration giving a half-maximal response (EC50) was 1.7 µM and the IC50 was found to be 9.33 µM.

As for `Cc1cc(C)c(COC(=O)NS(=O)(=O)Nc2ccccc2)c(C)c1`, the EC50 was above 200 µM and the IC50 stood at 43.7 µM.

As for `OC(c1ccccc1)(c1ccccc1)C1CC1c1ccncc1` (stereo not drawn), the EC50 is above 200 µM and the 50% inhibitory concentration (IC50) was determined as 117 µM.

Turning to `COC(=O)C(Cc1c(C2Nc3ccccc3C2CC(NC(C)=O)C(=O)OC)[nH]c2ccccc12)NC(C)=O` (stereo not drawn), the EC50 was above 200 µM and the IC50 is above 200 µM.

As to `CN(C)c1ccc(/C=C/c2ccnc3c(O)cccc23)cc1`, the EC50 was above 18.2 µM and the IC50 was found to be 1.05 µM.

As for `O=C1C(=Cc2ccco2)C(=O)C2CCCCC12` (stereo not drawn), the EC50 is above 200 µM and the IC50 came to 166 µM.

Regarding `O=C(CCc1cc(O)ccc1O)OCCc1ccccc1`, the EC50 was above 20 µM and the concentration for half-maximal inhibition (IC50) was found to be 10.2 µM.

`O=C(O)CCNC(=O)c1ccccc1SC(=O)CCCC[n+]1ccccc1`: the EC50 is 21.9 µM and the IC50 was above 200 µM.

On to `COc1cc(/C=C/C(=O)OCC23CC[C@@]4(C(=O)O)CCC(C)[C@H](C)C4C2=CCC2[C@@]4(C)CC[C@H](O)C(C)(C)C4CC[C@]23C)ccc1O` (stereo partly drawn), for which the EC50 was above 200 µM and the concentration for half-maximal inhibition (IC50) was 1.05 µM.

With `COc1ccc(OC)c2c(C(C)=O)cccc12`, the EC50 was above 200 µM and the 50% inhibitory concentration (IC50) worked out at 97.7 µM.

Take `COc1ccc(OC2OC(COC(c3ccccc3)(c3ccc(OC)cc3)c3ccc(OC)cc3)C(O)C(O)C2O)cc1` (stereo not drawn): the EC50 was above 200 µM and the IC50 amounted to 8.91 µM.

As for `CCC1(C)C(C#N)(C#N)C1(C#N)C#N`, the EC50 is above 200 µM and the IC50 stood at 1.29 µM.

On to `COc1ccc(N/N=C2\CCOc3ccc(C)cc3C2=O)cc1`, for which the EC50 is above 20 µM and the 50% inhibitory concentration (IC50) was found to be 12 µM.

As to `Nc1c([N+](=O)[O-])nc(Cl)c2nncn12`, the EC50 is above 234 µM and the IC50 was found to be 120 µM.

On to `C=C1[C@H]2CC[C@H]3C45CO[C@@H](CC4=O)C(C)(C)C5=C(O)C(=O)C3(C2)[C@@H]1OC(C)=O`, for which the EC50 is above 18.6 µM and the concentration for half-maximal inhibition (IC50) is above 18.6 µM.

For `COc1cccc(C2C(C(=O)O)=C(CO)Oc3cc4c(cc32)OCO4)c1OC` (stereo not drawn), the outcome was inactive.

With `OCC(O)C(O)C(O)c1nn[nH]n1` (stereo not drawn), the outcome was inactive.

Turning to `CCNC(=O)Nc1ccc(Cl)cn1`, the EC50 was above 200 µM and the concentration for half-maximal inhibition (IC50) was determined as 132 µM.

Consider `CC(=O)NC1=CC(=O)c2cc(C)cc(O)c2C1=O`, for which the EC50 is above 200 µM and the concentration for half-maximal inhibition (IC50) came out at 5.01 µM.

`CCOC(=O)c1sc(N/N=C2\NC(=O)/C(=C/c3ccc([N+](=O)[O-])cc3)S2)nc1C`: the EC50 is above 200 µM and the IC50 was found to be 135 µM.

On to `COc1cc2c(cc1OC)C(c1ccc(N=Cc3ccc(N(C)C)cc3)cc1)N(C(=S)Nc1cc(Cl)ccc1Cl)CC2` (stereo not drawn), for which the result was inactive.

On to `Cn1c(=O)n2n(c1=O)Cc1cccc3cccc(c13)C2`, for which the EC50 is above 200 µM and the half-inhibitory concentration (IC50) was above 200 µM.

As for `CN1CCc2cc(O)c3cc2C1Cc1ccc(cc1)Oc1cc(ccc1O)CC1c2c(cc4c(c2O3)OCO4)CCN1C` (stereo not drawn), the result was inactive.

Regarding `COc1ccc(-c2cc3ccccc3oc2=O)cc1OC`, the EC50 is above 200 µM and the IC50 came out at 41.7 µM.

Consider `COc1c(Cl)cc(S(=O)OC)cc1Cl` (stereo not drawn), for which the result was inactive.

In the case of `CN(C)C1=CC(=O)C(=O)c2ccncc21`, the outcome was inactive.

With `CC1=C(O[Si](C(C)C)(C(C)C)C(C)C)C2CC1[C@@H]1C(=O)N(c3ccccc3)C(=O)[C@H]21` (stereo partly drawn), the EC50 is above 6.46 µM and the IC50 is above 6.46 µM.

For `O=C1C(Cl)C(c2ccccc2O)N1n1cnc2ccccc2c1=O` (stereo not drawn), the EC50 was above 14.5 µM and the concentration for half-maximal inhibition (IC50) is above 14.5 µM.

Turning to `COc1ccc(C2N(c3ccc(F)c([N+](=O)[O-])c3)C(=O)N3C(c4ccc(OC)cc4)N(c4ccc(F)c([N+](=O)[O-])c4)C(=O)N23)cc1` (stereo not drawn), the EC50 was above 200 µM and the concentration for half-maximal inhibition (IC50) stood at 33.9 µM.

For `Cc1cccnc1NC(=S)Nc1ccccc1Cl`, the EC50 was above 200 µM and the IC50 amounted to 0.813 µM.

Take `COc1ccc(/C(C)=N/NC(N)=S)c(OC)c1`: the outcome was inactive.

For the compound `COC(=O)c1c(C)cccc1/C=C1/Cc2c(C)cccc2C1=O`, the EC50 was above 200 µM and the half-maximal inhibitory concentration (IC50) is above 200 µM.

Consider `O=S(O)CCCCSSCC(O)CO` (stereo not drawn), for which the EC50 was above 200 µM and the IC50 came out at 2.63 µM.

Regarding `COc1ccc2nc(CC(=N)c3ccc(N(C)C)cc3)ccc2c1`, the EC50 is above 200 µM and the IC50 came to 23.4 µM.

With `Cn1c(N)c(Cc2ccc(Cl)cc2)c(=O)[nH]c1=O`, the EC50 was above 200 µM and the concentration for half-maximal inhibition (IC50) is above 200 µM.

Take `O=C(Nc1ccccc1-c1nn(C(=S)Nc2ccccc2)c(=S)n(C(=S)Nc2ccccc2)c1=O)C(F)(F)F`: the result was inactive.

As to `COc1ccc2cc1Oc1ccc(cc1)C[C@@H]1c3cc(c(OC)cc3CCN1C)Oc1c(OC)c(OC)cc3c1[C@@H](C2)N(C)CC3`, the result was inactive.

Consider `CCOC(=O)c1cc2c3c(c(O)c(OC)c2s1)N(C(=O)c1cc2c4c(c(OC)c(OC)c2s1)N(C(=O)OC(C)(C)C(Cl)(Cl)Cl)CC4)CC3`, for which the result was inactive.

Consider `O=C(O[C@@H]1C(=O)N2CC[C@H]3OC(O)[C@@H]1[C@H]32)c1ccc([N+](=O)[O-])cc1` (stereo partly drawn), for which the EC50 is above 200 µM and the IC50 was above 200 µM.

Take `O=Cc1ccc(C=O)n1C1CCOC1=O` (stereo not drawn): the result was inactive.

For `CC(C)C(NC(=O)C(Cc1ccccc1)NC(=O)[C@H]1CCC[C@H]1NC(=O)C(N)Cc1ccc(O)cc1)C(N)=O` (stereo partly drawn), the result was inactive.

As for `NS(=O)(=O)c1cc[c]([Sb](=[O])([OH])[OH])cc1`, the EC50 was above 200 µM and the half-inhibitory concentration (IC50) was above 200 µM.

As for `COC(=O)c1cc(C(c2cc(C(=O)OC)c(O)c(Br)c2C)C(Cl)(Cl)Cl)c(C)c(Br)c1O`, the EC50 is above 200 µM and the IC50 worked out at 112 µM.

As for `CC(=O)OC(Cc1cc(C=C(C(F)(F)F)C(F)(F)F)cc(C)n1)(C(F)(F)F)C(F)(F)F`, the EC50 was above 200 µM and the IC50 came out at 0.955 µM.

Consider `COc1ccc(OC)c2c3c([nH]c12)C(=O)Nc1nc(N)nc(N)c1C3`, for which the EC50 was above 20 µM and the concentration for half-maximal inhibition (IC50) is 1 µM.

Take `NNC(=O)CC(=O)Nc1cccc(Cl)c1`: the EC50 was above 200 µM and the IC50 came out at 120 µM.

Regarding `CCc1ccc(Nc2cc(=O)n(C)c(SCc3ccccc3)n2)cc1`, the EC50 is above 200 µM and the IC50 is above 200 µM.

For the compound `COc1cccc2c1C(=O)c1c(O)c3c(c(O)c1C2=O)C[C@@](O)(/C(C)=N/NC(=O)c1ccccc1)C[C@@H]3OC1CC(N)C(O)C(C)O1` (stereo partly drawn), the EC50 is above 50.1 µM and the IC50 was determined as 0.0158 µM.

For the compound `CC(C)Sc1nc(C#N)cc2c1CCCC2`, the EC50 was above 200 µM and the IC50 is 57.5 µM.

With `COc1ccc(C2CC(=O)c3ccccc3O2)cc1` (stereo not drawn), the EC50 is above 200 µM and the IC50 turned out to be 97.7 µM.

In the case of `Cn1c(C(=O)c2cc3ccccc3n2C)cc2ccccc21`, the EC50 was above 18.2 µM and the IC50 is above 18.2 µM.

As for `CC(C)CC(NC(=O)CNC(=O)C(CC(C)C)NC(=O)C(Cc1c[nH]cn1)NC(=O)C(CC(N)=O)NC(=O)C(C)NC(=O)C1CCCN1C(=O)C(Cc1ccc(O)cc1)NC(=O)C1CCCN1C(=O)C(C)NC(=O)C(CCC(=O)O)NC(=O)C(CC(=O)O)NC(=O)C(Cc1ccccc1)NC(=O)C(CC(N)=O)NC(=O)C(C)N)C(=O)O` (stereo not drawn) (H-ANFDEAPYPANHLGL-OH; configuration not given here), the EC50 was above 38 µM and the IC50 is above 38 µM.

As for `CNC(=S)/C(C#N)=C(\N)N1CCCC1`, the EC50 was above 200 µM and the IC50 is above 200 µM.

Turning to `COc1ccc(C(=O)c2ccc(OC)c(S(=O)(=O)OC)c2)cc1S(=O)(=O)OC`, the EC50 is above 43.7 µM and the IC50 was above 43.7 µM.

In the case of `CCN(c1ccccc1)[C@H]1C(=O)N(c2ccc([N+](=O)[O-])cc2)[C@H]1c1ccc(OC)cc1`, the outcome was inactive.

`CCOC(=O)/C=C\SCC(N)C(=O)O` (stereo not drawn): the EC50 is above 575 µM and the IC50 amounted to 309 µM.

For `COc1ccc(NC(=O)/C(=C\N2C(=O)CC(=O)NC2=S)C(C)=O)cc1`, the EC50 is above 200 µM and the half-inhibitory concentration (IC50) turned out to be 25.7 µM.

As to `O=[N+]([O-])c1nccn1CC1OC(n2ccnc2[N+](=O)[O-])C(O)C(O)C1O` (stereo not drawn), the EC50 was above 200 µM and the IC50 was above 200 µM.

On to `Cc1cccc(C)c1NC(=O)C(=O)C1C(=O)N(c2ccccc2)N=C1N` (stereo not drawn), for which the EC50 was above 708 µM and the half-maximal inhibitory concentration (IC50) was above 708 µM.

For the compound `COC(=O)c1cccc(OC)c1C#Cc1c(OC)cccc1OC`, the EC50 was above 200 µM and the 50% inhibitory concentration (IC50) was 21.9 µM.
